In assay [1] the target is T1, Beta-3 adrenergic receptor (Homo sapiens, UniProt P13945). Description: (§1) In vitro effective concentration against beta-3 adrenergic receptor.
For assay [2], the target named is T1, Beta-3 adrenergic receptor. The description is as §1. The source holds these as a separate data set.

T1 sequence (P13945 whole entry): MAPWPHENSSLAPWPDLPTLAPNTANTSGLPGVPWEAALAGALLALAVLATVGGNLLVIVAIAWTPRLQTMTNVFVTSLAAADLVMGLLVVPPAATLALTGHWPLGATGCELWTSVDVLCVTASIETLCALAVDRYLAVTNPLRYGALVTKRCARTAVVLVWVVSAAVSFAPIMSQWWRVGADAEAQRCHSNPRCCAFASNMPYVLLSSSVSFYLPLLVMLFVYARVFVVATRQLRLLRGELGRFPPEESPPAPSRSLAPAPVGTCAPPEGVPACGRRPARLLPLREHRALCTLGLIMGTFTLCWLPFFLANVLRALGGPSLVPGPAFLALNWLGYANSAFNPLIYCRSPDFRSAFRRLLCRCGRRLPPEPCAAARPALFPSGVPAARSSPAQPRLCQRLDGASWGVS

Turning to `CCCCCCCCN1CNN(c2ccc(S(=O)(=O)Nc3ccc(CCNC[C@H](O)c4cccnc4)cc3)cc2)C1=O`, the values for the EC50 in assay [1] and in assay [2] were 5.4 nM and 5.37 nM, respectively.
On to `CCCCCCN1CC(=O)N(c2ccc(S(=O)(=O)Nc3ccc(CCNC[C@H](O)c4cccnc4)cc3)cc2)C1=O`, for which, in assay [2], the EC50 was 275 nM.
In the case of `CCCCCCCCN1NCN(c2ccc(S(=O)(=O)Nc3ccc(CCNC[C@H](O)c4cccnc4)cc3)cc2)C1=O`, the results for the EC50 in assay [1] and in assay [2] were 15 nM and 15.1 nM, respectively.

Source of the values: ChEMBL document CHEMBL1136126, “Development of 3D-QSAR models in cyclic ureidobenzenesulfonamides: human beta3-adrenergic receptor agonist” (Bioorg Med Chem Lett, 2003).
